Earlier results as cited in patent publication US20210029988A1, “PEST REPELLENT COMPOSITION” (JGC CATALYSTS AND CHEMICALS LTD., priority 2018, published 2021).

Legend:
[1] = within 6 hours

Question: Which results are given for CCN(CC)C(=O)c1cccc(C)c1 [DEET, N,N-diethyl-m-toluamide]?
Answer: Transdermally absorbed proportion of DEET applied on the skin [1]: about 50%; Vapor pressure at 20°C (VP): 0.22 Pa
